Source: US9144569B2, “Methods of administering an aromatase inhibitor, prostaglandin and GnRH for regulating ovulation in cattle” (UNIVERSITY OF SASKATCHEWAN, priority 2010, dated 2015)
Read-outs that look alike come from different tables or passages of the source.

Legend:
Type in all cases: in vivo, cattle
[1] = system: plasma LH; assay: Example III: plasma LH after letrozole IV or IM; details: 1 mg/kg IV or IM vs placebo
Protocol: (§1) Ovarian cyclicity in heifers was synchronized using transvaginal ultrasound-guided follicular ablation followed by a double dose of PGF 4 days after ablation. The ovaries were examined daily by transrectal ultrasonography to detect ovulation. Three days after ovulation, heifers were assigned randomly to four treatment groups and given letrozole at a dose of 1 mg/kg intravenously (in benzyl alcohol, n=10) or intramuscularly (in benzyl alcohol plus canola oil 1:1 v/v, n=10), or given a placebo intravenously (benzyl alcohol, n=5) or intramuscularly (benzyl alcohol plus canola oil 1:1 v/v, n=5). Ovarian structures were monitored by ultrasonography and blood samples were collected by jugular venipuncture twice daily from pre-treatment to post-treatment ovulations. Comparisons among groups were made by one-way ANOVA for single-point measurements and by ANOVA for repeated measures for time-series data.
(§2) Blood samples collected daily from treatment to post-treatment ovulation.
(§3) Endpoints are: Follicular diameter profiles; CL diameter profile; Circulating progesterone concentration; Circulating FSH and LH profiles; Letrozole profile and bioavailability; Circulating estradiol concentration Follicular fluid estradiol concentration).

[2] = Example I: plasma letrozole concentration (LC/MS/MS) and non-compartmental pharmacokinetics after single iv dose; details: for AUC(0-t): read-out: Area under the curve (AUClast); for Cmax: read-out: Maximal concentration (Cmax); for clearance: read-out: Systemic clearance (Cls) (converted); for half-life: read-out: Half-life (T1/2) (converted); for MRT: read-out: Mean residence time (MRT)
Protocol: Heifers in which a CL was detected during the initial examination were given […] cloprostenol (PGF, Estrumate™, Schering-Plough Animal Health, Pointe-Claire, QC, Canada) intramuscularly (im) to induce regression of the CL and to synchronize ovulation. Heifers were examined daily by transrectal ultrasonography to detect ovulation. Transvaginal ultrasound-guided follicular aspiration of follicles ≧5 mm was performed five to eight days after ovulation to synchronize wave emergence. Heifers were examined daily by transrectal ultrasonography to detect follicular wave emergence, which was expected 1 to 1.5 days after follicular ablation. Four days after follicular ablation (approximately 2.5 days after follicular wave emergence), and at the time follicular dominance becomes apparent, heifers were assigned randomly to the following treatment groups and given a single intravenous dose of 1) 500 μg/kg of letrozole (high dose group, n=9), 2) 250 μg/kg of letrozole (medium dose group, n=10), 3) 125 μg/kg of letrozole (low dose group, n=10), or 4) 20 ml of phosphate buffered saline (PBS control group, n=10). For practical purposes, the dose of letrozole was calculated based on an average weight of 400 kg for all heifers. The average oral dose used in women (2.5-5 mg per day for 5 days) was used to estimate the medium dose for cattle. The high and low doses were set as double and half the medium dose, respectively. The day of treatment was defined as Day 0. For intravenous injection, letrozole was prepared in 95% ethanol at a final concentration of 5 mg per ml, resulting in an injection volume of 10-40 ml. The experiment was performed in four replicates (n=2-3 per group per replicate) and each heifer was used only once.
Blood samples were collected by jugular or coccygeal venipuncture into 10 ml heparinized vacuum tubes (Becton Dickinson Vacutainer Systems, Franklin Lakes, N.J., USA). Blood samples were collected at 0, 0.25, 0.5, 1, 1.5, 2, 3, 4, 6, 8, 12, 24, 36, 48 hours post-treatment using an indwelling jugular catheter as previously described and daily thereafter to the first post-treatment ovulation. Blood samples were centrifuged at 1500×g for 20 minutes; plasma was separated and stored in plastic tubes at −20° C.
Plasma concentrations of letrozole were determined using high performance liquid chromatography tandem mass spectrometry (LC/MS/MS). To extract letrozole from the samples, 250 μL of a buffer solution (0.1M ammonium) were added to 250 μL of plasma followed by the addition of 5 mL of methyl t-butyl ether (MTBE) and vortexed for 15 seconds. The organic layer was removed by pipetting and transferred to a fresh 15 mL plastic tube. This second tube was dried by gentle nitrogen gas flow. The dried extract was reconstituted in 1 mL of 100% ethanol, sonicated for 5 minutes and transferred to a labelled vial for further analysis. Separation was accomplished by HPLC (Agilent 1200, Santa Clara, Calif., USA) fitted with an analytical column (50×2.1 mm, 3 μm particle size; Thermo Scientific Betasil C18, Waltham, Mass., USA) operated at 35° C. Gradient conditions were used at a flow rate of 250 μL/min, starting at 85% A (0.1% acetic acid) and 15% B (0.1% acetic acid in acetonitrile). Initial conditions were held for 2 min and then ramped to 100% B at 6 min, held until 9 min, decreased to 0% B at 11 minutes, and returned to initial conditions at 13 minutes, and held constant until 15 minutes. Mass spectra were collected using a tandem mass spectrometer (Applied Bioscience SCIEX 3000, Foster City, Calif., USA) fitted with an electrospray ionization source, operated in the negative ionization mode. Chromatograms were recorded using multiple reaction monitoring (MRM) mode, where at least two transitions per-analyte were monitored. […]

[3] = system: plasma progesterone; assay: Example III: plasma progesterone after letrozole IM; details: 1 mg/kg IM; P<0.06
Protocol: as §1, §2, §3

[4] = female, bovine, plasma, 125 ug/kg, 125 μg/kg single iv, n=9
[5] = female, bovine, plasma, 250 ug/kg, 250 μg/kg single iv, n=9
[6] = female, bovine, plasma, 500 ug/kg, 500 μg/kg single iv, n=9
[7] = female, bovine, plasma, iv, 125 ug/kg, 125 μg/kg single iv, n=9
[8] = female, bovine, plasma, iv, 250 ug/kg, 250 μg/kg single iv, n=9
[9] = female, bovine, plasma, iv, 500 ug/kg, 500 μg/kg single iv, n=9
[10] = female, bovine, plasma, iv, doses combined

For `N#Cc1ccc(C(c2ccc(C#N)cc2)n2cncn2)cc1` [Letrozole, letrozole], the “plasma LH concentrations among groups” value [1] was “did not differ”, the “mean circulating level of letrozole during the first 96 hours” value ([2]; 250 μg/kg, single application) was 112 ± 16.26 ng/mL and the “Half-life (T1/2)” value ([2]; doses combined) was 27.3 ± 0.42 h. For the same compound, the AUC(0-t) [2, 4] was 8800 ± 720 ng·h/mL, the Cmax [2, 4] was 1200 ± 250 ng/mL and the clearance [2, 4] was 0.243 mL/min/kg. It also gave an AUC(0-t) [2, 5] of 17300 ± 2000 ng·h/mL, a Cmax [2, 5] of 1700 ± 180 ng/mL and a clearance [2, 5] of 0.258 mL/min/kg. For the same compound, the AUC(0-t) [2, 6] was 28100 ± 2150 ng·h/mL, the Cmax [2, 6] was 2500 ± 370 ng/mL and the clearance [2, 6] was 0.308 mL/min/kg. The concentration at 96 hours ([2]; female, bovine, plasma, intravenous, 250 μg/kg given in a single dose, read-out: mean concentration of letrozole in the circulation at 96 hours) was 43.7 ± 8.79 ng/mL, the half-life [2, 7] was 26.9 ± 0.95 h and the MRT [2, 7] was 31.7 ± 2 h. It also gave a half-life [2, 8] of 26.6 ± 1.18 h, an MRT [2, 8] of 33.7 ± 2.98 h and a half-life [2, 9] of 28.5 ± 1.05 h. It also gave an MRT [2, 9] of 35.8 ± 1.43 h, an AUC(0-t) [2, 10] of 18200 ± 4030 ng·h/mL and a half-life [2, 10] of 27 h. For the same compound, the Cmax [2, 10] was 1800 ± 270 ng/mL, the MRT [2, 10] was 34 h and the clearance [2, 10] was 0.27 mL/min/kg. For the same compound, the “mean plasma letrozole concentration throughout the 8-day period” value ([2]; high dose 500 μg/kg iv) was 0.63 ± 0.04 µg/mL, the “mean plasma letrozole concentration throughout the 8-day period” value ([2]; low dose 125 μg/kg iv) was 0.27 ± 0.04 µg/mL and the “mean plasma letrozole concentration throughout the 8-day period” value ([2]; medium dose 250 μg/kg iv) was 0.44 ± 0.04 µg/mL. For the same compound, the “plasma progesterone concentrations vs IM controls” value [3] was “tended to be higher”.
